The results in this text go back to patent US10160772B2, “5,6-dihydro-4H-benzo[b]thieno-[2,3-d]azepine derivatives” (PULMOCIDE LIMITED, priority 2014, dated 2018).

Each structure is given as a SMILES string. A value given as a limit tells only on which side of the number the result lay.

Type in all cases: cell-based
One data set relates to RSV B Washington strain. The data set is described as follows: RSV B-induced CPE in Hep2 cells. Conditions: human respiratory syncytial virus, Hep2 cells; for IC50: HEp-2, 144 h, RSV B Washington 0.1 MOI, 6 days, resazurin, read-out: RSV B CPE IC50; for inhibition at 1 µg/mL: HEp-2, at 1 μg/mL, read-out: RSV B CPE % Inhibition. As for the experimental part: (§1) Biological Testing: Experimental Methods Assessment of RSV Induced CPE in Hep2 Cells
(§2) Hep2 cells were seeded (10^3/well/50 μL) in 384-well plates (Catalogue number 353962, BD Falcon, Oxford, UK) in 5% serum free-DMEM containing 2 mM L-glutamine and 1 mM sodium pyruvate one day before infection. RSV A2 strain (#0709161v, NCPV, Public Health England, Wiltshire) or RSV B Washington strain (VR-1580, ATCC, Manassas, Va. 20108) virus solutions were prepared in serum free-DMEM with 2 mM L-glutamine and 1 mM sodium pyruvate, and then added (50 μL/well) to achieve a final virus concentration of 1 MOI for RSV A and 0.1MOI for RSV B. Simultaneously test compounds (0.5 μL DMSO solution) were added to 100 μL of Hep2 cell culture with virus solution to provide a final DMSO solution of 0.5%. Plates were incubated (37° C./5% CO2) for 5 days for studies using RSV A2 strain or 6 days for those using RSV B strain, and then resazurin sodium salt (5 μL of 0.03% solution; Sigma-Aldrich, Dorset, UK) was added to each well and the plate incubated for a further 6 hr (37° C. and 5% CO2). The fluorescence of each well [545 nm (excitation)/590 nm (emission)] was determined using a multi-scanner (Clariostar: BMG, Buckinghamshire, UK). The percentage inhibition for each well was calculated and the IC50, IC75 and IC90 values were calculated from the concentration-response curve generated for each test compound.

The subject of the next data set is RSV A2 strain. The data set is described as follows: RSV A2-induced CPE in Hep2 cells. Conditions: human respiratory syncytial virus, Hep2 cells; for IC50: HEp-2, 120 h, RSV A2 1 MOI, 5 days, resazurin, read-out: RSV A2 CPE IC50; for inhibition at 0.01 µg/mL / inhibition at 0.1 µg/mL: HEp-2, read-out: RSV A2 CPE % Inhibition; for inhibition at 0.01 µg/mL: at 0.01 μg/mL (footnote 2); for inhibition at 0.1 µg/mL: at 0.1 μg/mL. As for the experimental part: as §1, §2

Data set [1] in a line: Cell viability: resazurin assay in Hep2 cells. Conditions: human, 5 days incubation. How it is done: Cell Viability: Resazurin Assay Hep2 cells were seeded in 384-well plates (10^3/well/50 μL; BD Falcon Ref 353962) in FBS DMEM (5%, containing 2 mM L-glutamine and 1 mM sodium pyruvate) one day before experimentation. Serum-free DMEM (50 μL) was added to test wells while for control wells the media was removed and sterile water (100 μL) was added. Test compounds (0.5 μL DMSO solution) were added to give a final DMSO concentration of 0.5%. Hep2 cells were incubated with each test compound for 5 days (37° C./5% CO2 in 5% FBS) and then resazurin stock solution (5 μL; 0.03%) was added to each well and the plate incubated further for a further 6 hrs (37° C./5% CO2). The fluorescence of each well at 545 nm (excitation) and 590 nm (emission) was determined using a multi-scanner (Clariostar: BMG Labtech). The percentage loss of cell viability was calculated for each well relative to vehicle (0.5% DMSO) treatment. Where appropriate, a CC50 value was calculated from the concentration-response curve generated from the concentration-response curve for each test compound.

`Cc1cnc(N2CC3(CCOCC3)C2)c(C(=O)Nc2ccc(C(=O)N3CCc4cc(-c5nc6cc(F)cc(F)c6[nH]5)sc4-c4ccccc43)cc2)c1` [Example 19, N-(4-(2-(5,7-difluoro-1H-benzo[d]imidazol-2-yl)-5,6-dihydro-4H-benzo[b]thieno[2,3-d]azepine-6-carbonyl)phenyl)-5-methyl-2-(7-oxa-2-azaspiro[3.5]nonan-2-yl)nicotinamide]: in the data set with RSV B Washington strain, the IC50 is 6.3 nM and the inhibition at 1 µg/mL amounted to 100%. Besides, in the data set on RSV A2 strain, the half-inhibitory concentration (IC50) is 0.96 nM and the inhibition at 0.01 µg/mL came out at 88%. The compound further registered a CC50 at 5 days in data set [1] of over 14000 nM.
On to `Cc1cnc(N2CC3(CCOCC3)C2)c(C(=O)Nc2ccc(C(=O)N3CCc4cc(-c5nc6cccc(C)c6[nH]5)sc4-c4ccccc43)cc2)c1` [Example 16, 5-methyl-N-(4-(2-(7-methyl-1H-benzo[d]imidazol-2-yl)-5,6-dihydro-4H-benzo[b]thieno[2,3-d]azepine-6-carbonyl)phenyl)-2-(7-oxa-2-azaspiro[3.5]nonan-2-yl)nicotinamide], for which, in the data set with RSV B Washington strain, the IC50 stood at 16 nM and the inhibition at 1 µg/mL came to 99%. For the same compound, in the data set with RSV A2 strain, the IC50 worked out at 0.11 nM and the inhibition at 0.1 µg/mL worked out at 100%. The same compound returned a CC50 at 5 days in data set [1] of over 14400 nM.
Consider `Cc1cc(C(=O)Nc2ccc(C(=O)N3CCc4cc(-c5nc6cccc(C#N)c6[nH]5)sc4-c4ccccc43)cc2)c(N2CC3(CCOCC3)C2)nc1C` [Example 25, N-(4-(2-(7-cyano-1H-benzo[d]imidazol-2-yl)-5,6-dihydro-4H-benzo[b]thieno[2,3-d]azepine-6-carbonyl)phenyl)-5,6-dimethyl-2-(7-oxa-2-azaspiro[3.5]nonan-2-yl)nicotinamide], for which, in the data set on RSV B Washington strain, the IC50 was 15.8 nM and the inhibition at 1 µg/mL turned out to be 100%. Also, in the data set on RSV A2 strain, the IC50 came out at 0.69 nM and the inhibition at 0.01 µg/mL was found to be 100%. The compound also yielded a CC50 at 5 days in data set [1] of over 13900 nM.
For `Cc1cnc(N2CC3(CCOCC3)C2)c(C(=O)Nc2ccc(C(=O)N3CCc4cc(-c5nc6cccc(C#N)c6[nH]5)sc4-c4ccccc43)cc2)c1` [Example 18, N-(4-(2-(7-cyano-1H-benzo[d]imidazol-2-yl)-5,6-dihydro-4H-benzo[b]thieno[2,3-d]azepine-6-carbonyl)phenyl)-5-methyl-2-(7-oxa-2-azaspiro[3.5]nonan-2-yl)nicotinamide], in the data set on RSV B Washington strain, the IC50 came out at 7.4 nM and the inhibition at 1 µg/mL was 100%. Besides, in the data set on RSV A2 strain, the IC50 amounted to 0.28 nM and the inhibition at 0.1 µg/mL was 100%. Also, the CC50 at 5 days in data set [1] was over 14200 nM.
As to `Cc1cnc(N2CC3(CCOCC3)C2)c(C(=O)Nc2ccc(C(=O)N3CCc4cc(-c5nc6ccccc6[nH]5)sc4-c4ccccc43)c(F)c2)c1` [Example 26, N-(4-(2-(1H-benzo[d]imidazol-2-yl)-5,6-dihydro-4H-benzo[b]thieno[2,3-d]azepine-6-carbonyl)-3-fluorophenyl)-5-methyl-2-(7-oxa-2-azaspiro[3.5]nonan-2-yl)nicotinamide], in the data set on RSV B Washington strain, the IC50 turned out to be 12 nM and the inhibition at 1 µg/mL stood at 100%. In the data set with RSV A2 strain, the IC50 amounted to 0.27 nM and the inhibition at 0.01 µg/mL was found to be 100%. Besides, the CC50 at 5 days in data set [1] was over 14300 nM.
As for `Cc1cc(C(=O)Nc2ccc(C(=O)N3CCc4cc(-c5nc6cccc(F)c6[nH]5)sc4-c4ccccc43)cc2)c(N2CC3(CCOCC3)C2)nc1C` [Example 22, N-(4-(2-(7-fluoro-1H-benzo[d]imidazol-2-yl)-5,6-dihydro-4H-benzo[b]thieno[2,3-d]azepine-6-carbonyl)phenyl)-5,6-dimethyl-2-(7-oxa-2-azaspiro[3.5]nonan-2-yl)nicotinamide], in the data set with RSV B Washington strain, the 50% inhibitory concentration (IC50) was determined as 14 nM and the inhibition at 1 µg/mL came out at 100%. In the data set with RSV A2 strain, the IC50 was found to be 1.6 nM and the inhibition at 0.01 µg/mL came to 90%. This compound returned a CC50 at 5 days in data set [1] of over 14000 nM.
